Experiment [1] has as its target Muscarinic acetylcholine receptor. The experiment in a line: Displacement of [3H]N-methylscopolamine from rat brain homogenate. The format is tissue-based. In general terms: Displacement assays read how much labelled ligand stays bound in the presence of the test substance.
Experiment [2] has the same target. The experiment in a line: Ability (10 ug/kg) to inhibit binding of [125I]iododexetimide to muscarinic receptor in mice.
A short description of experiment [3]: Ability (10 ug/kg) to inhibit binding of [125I]iododexetimide to 5-hydroxytryptamine receptor in mice. Particulars: Mus musculus.
The nature of experiment [4]: Ability (10 ug/kg) to inhibit binding of [125I]iododexetimide to adrenergic receptor in mice.

In general, IC50 refers to the point on the concentration scale where inhibition reaches its midpoint. For `O=C1CCC(c2ccccc2)(C2CCN(Cc3cccc(F)c3)CC2)C(=O)N1` (configuration not stated), the IC50 in experiment [1] stood at 21 nM.
In experiment [1], `O=C1CCC(c2ccccc2)(C2CCN(Cc3ccc(Cl)cc3)CC2)C(=O)N1` (configuration not stated) displayed a half-maximal inhibitory concentration (IC50) of 27 nM. This IC50 and that of the compound before are within 1.5-fold of each other.
Still for that read-out and setting: to `O=C1CCC(c2ccccc2)(C2CCN(Cc3cccc(I)c3)CC2)C(=O)N1` (configuration not stated) belongs 22 nM; to `O=C1CCC(c2ccccc2)(C2CCN(Cc3ccc(Br)cc3)CC2)C(=O)N1` (configuration not stated), 38 nM.
Same read-out and setting: the result for `O=C1CCC(c2ccccc2)(C2CCN(Cc3ccccc3F)CC2)C(=O)N1` (configuration not stated) reads 32 nM.
The same measure, in the same setting: the result for `O=C1CCC(c2ccccc2)(C2CCN(Cc3cccc(Br)c3)CC2)C(=O)N1` (configuration not stated) reads 24 nM.
The compound `O=C1CCC(c2ccccc2)(C2CCN(Cc3cccc(Cl)c3)CC2)C(=O)N1` (configuration not stated) had an IC50 in experiment [1] of 26 nM.
Same read-out and setting: the result for `O=C1CCC(c2ccccc2)(C2CCN(Cc3ccccc3Br)CC2)C(=O)N1` (configuration not stated) reads 500 nM; that for `O=C1CCC(c2ccccc2)(C2CCN(Cc3ccc(I)cc3)CC2)C(=O)N1` (configuration not stated), 17 nM; that for `O=C1CCC(c2ccccc2)(C2CCN(Cc3ccc(F)cc3)CC2)C(=O)N1` (configuration not stated), 98 nM.
`O=C1CCC(c2ccccc2)(C2CCN(Cc3ccccc3I)CC2)C(=O)N1` (configuration not stated) had a half-maximal inhibitory concentration (IC50) in experiment [1] of 500 nM. Compared with the last compound, the IC50 is about 5.1-fold higher.
The same measure, in the same setting: the result for `O=C1CCC(c2ccccc2)(C2CCN(Cc3ccccc3Cl)CC2)C(=O)N1` (configuration not stated) reads 460 nM.
`Cl.O=C1CCC(c2ccccc2)(C2CCN(Cc3ccccc3)CC2)C(=O)N1` (configuration not stated) [BENZETIMIDE HYDROCHLORIDE] registered an IC50 in experiment [2] of 8900 nM. This counts as single-digit micromolar.
In experiment [1], `O=C1CCC(c2ccccc2)(C2CCN(Cc3ccccc3)CC2)C(=O)N1` (configuration not stated) [BENZETIMIDE] showed a concentration for half-maximal inhibition (IC50) of 15 nM.
With `O=C1CC[C@@](c2ccccc2)(C2CCN(Cc3ccccc3)CC2)C(=O)N1` [DEXETIMIDE], the concentration for half-maximal inhibition (IC50) in experiment [2] amounted to 3.3 nM.
In turn, `O=C(c1ccc(F)cc1)C1CCN(CCn2c(=O)[nH]c3ccccc3c2=O)CC1` [KETANSERIN] returned an IC50 in experiment [3] of 130000 nM.
The compound `COc1cc2nc(N3CCN(C(=O)c4ccco4)CC3)nc(N)c2cc1OC` [PRAZOSIN] yielded a concentration for half-maximal inhibition (IC50) in experiment [4] of 13000 nM.
